Laboratory results published in PubChem BioAssay (NCI).
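Assay format: 96-well plates, 48-hour exposure. GI50 = concentration required for 50% inhibition of growth. TGI: total growth inhibition.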

Experiments:
Test in all cases: growth of human tumour cells (NCI), 48 h
OVCAR-5 ovarian = system: OVCAR-5 ovarian
MALME-3M melanoma = system: MALME-3M melanoma
SNB-75 CNS = system: SNB-75 CNS
PC-3 prostate = system: PC-3 prostate
UACC-62 melanoma = system: UACC-62 melanoma
OVCAR-3 ovarian = system: OVCAR-3 ovarian
MDA-MB-231 breast = system: MDA-MB-231 breast
SR leukemia = system: SR leukemia

Structure (SMILES)	GI50 (OVCAR-5 ovarian) [µM]	TGI (OVCAR-5 ovarian) [µM]	GI50 (MALME-3M melanoma) [µM]	TGI (MALME-3M melanoma) [µM]	GI50 (SNB-75 CNS) [µM]	TGI (SNB-75 CNS) [µM]	GI50 (PC-3 prostate) [µM]	TGI (PC-3 prostate) [µM]	GI50 (UACC-62 melanoma) [µM]	TGI (UACC-62 melanoma) [µM]	GI50 (OVCAR-3 ovarian) [µM]	TGI (OVCAR-3 ovarian) [µM]	GI50 (MDA-MB-231 breast) [µM]	TGI (MDA-MB-231 breast) [µM]	TGI (SR leukemia) [µM]	GI50 (SR leukemia) [µM]
COc1ccc(C(O)c2cc3c(N)c(C(=O)Nc4cccc(Cl)c4C)sc3nc2C)cc1 (configuration not stated)	0.932	1.92	0.809	1.51	0.637	1.34	0.768	1.63	0.896	1.67	0.814	1.79	0.781	1.57		
Cc1cc(=O)c2cc(N=Cc3ccc([N+](=O)[O-])o3)ccc2o1		> 100		> 100		> 100				> 100		> 100		> 100	> 100	
C[C@]12CC/C(=N\N)C[C@@H]1CC[C@@H]1[C@@H]2CC[C@]2(C)/C(=N/N)CC[C@@H]12	> 100	> 100	> 100	> 100	> 100	> 100	> 100	> 100	> 100	> 100	> 100	> 100	> 100	> 100		
C=C1C(=O)O[C@H]2[C@H]1CC/C(CNC(=O)/C=C/c1cccc(OC)c1)=C\CC[C@@]1(C)O[C@@H]21	2.05	5.36	1.48	3.3	1.82	8.09	1.8	3.86	1.43	2.92	1.1	2.45	1.79	4.07	10.5	0.537
CSc1ccc(-c2cc(-c3ccc(NC(=O)CCCN4CCCC4)cc3)nc(-c3ccc(NC(=O)CCCN4CCCC4)cc3)c2)cc1	2.28	4.86	14	42.7	1.64	4.99	1.8	3.4	11.9	32.4	3.97	14.6	1.85	3.69		
O=C(Nc1ccc(Cl)cc1)c1cc2c(cc1O)[nH]c1ccccc12	3.72	16.2	2.45	5.76	3.23	8.78	3.96	22.8	2.49	8.89	3.72	12.2	2.24	6.94	31.6	3.44
CCCCCCCCCCCCCCCC(=O)OCC1OC(n2cnc3c(=S)nc(N)[nH]c32)C(OC(=O)CCCCCCCCCCCCCCC)C1OC(=O)CCCCCCCCCCCCCCC (configuration not stated)	3.4	> 39.3	> 28.3	> 50	4.38	> 50	9.96	> 50	3.35	> 21.5	6.16	> 47.3	2.66	> 22.1		
CC1=C(SCc2ccccc2)C(=O)c2ccccc2C1=O		71.7		29.2		26.5		37.3		31.8		23.1		41.3		
CCOC(=O)c1cc2c(n1Cc1cc(OC)cc(OC)c1)-c1oncc1CCC2	0.294	> 100			0.0276	> 100	0.0644	> 100	0.0714	> 100	0.0274	0.0889	0.439	> 24.5	> 100	0.0382
CN(C)C(=S)NN=C(c1ccccn1)c1ccccn1	0.045	27.4	< 0.0331	0.503	14.3	> 81.6	< 0.0123	> 43.8	0.077	0.739	< 0.01	30.5	0.0412	27.8		
Cc1[nH]c(C(=O)Nc2ccc(C(=O)N3CCNCC3)cc2OC(C)C)c(Cl)c1Cl	1.79	4.04	1.59	3.05	3.31	14.1	2.02	5.44	1.8	3.38	2.19	4.62	1.67	3.33		
Cc1ccc2c[c]1[Hg][CH2]COS2(=O)=O	18.7	37.4	19.8	34	> 100	> 100	18.3	32.4	17.2	30.9			17.5	32		
C[N+](C)([O-])CCCNc1c2ccccc2nc2cccc([N+](=O)[O-])c12		1.57		0.419		1.4		1.26		0.491		5.65		1.48		
CN(C)/C=C/c1nnnn1-c1ccc(Cl)cc1	24.7	55.4	12.8	38.7	25.1	> 100	6.76	35.5	8.22	31.4			16.1	> 100	29.6	3.35
COC(=O)Nc1nc2ccc(Oc3ccc(NC(=O)Nc4cccc(Br)c4)cc3)cc2[nH]1	> 11.9	> 25	1.41	9.14	0.781	6.13	1.85	> 12.7	0.906	7.41	1.07	3.99	5.74	> 25		
O=C(Cn1c(=O)c(-c2ccccc2)nc2ccccc21)c1cccnc1	> 100	> 100	> 100	> 100			> 100	> 100	> 100	> 100	> 100	> 100	> 100	> 100	> 100	> 100
NC(N)=N/N=C/c1c(-c2cccs2)nc2sccn12	17.5	31.3			5.66	17.1	11.1	23.1	14.8	28.3	3.66	18.1	13.4	26.7		
